Results as given in PubChem BioAssay (NCI).
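Tested at 5 concentrations; 48 h exposure; 96-well plates; endpoints linearly interpolated, else capped at highest concentration. GI50 is the concentration that inhibits growth by half. TGI is the concentration that stops growth completely.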

Key:
Test in all cases: NCI anticancer screen, dose series, 48 h
SK-MEL-5 melanoma = tested on: SK-MEL-5 melanoma
KM12 colon = tested on: KM12 colon
UACC-257 melanoma = tested on: UACC-257 melanoma
SF-539 CNS = tested on: SF-539 CNS
SF-268 CNS = tested on: SF-268 CNS
NCI-H23 lung = tested on: NCI-H23 lung
DU-145 prostate = tested on: DU-145 prostate
A498 renal = tested on: A498 renal
MDA-MB-435 = tested on: MDA-MB-435
786-0 renal = tested on: 786-0 renal
SR leukemia = tested on: SR leukemia
OVCAR-5 ovarian = tested on: OVCAR-5 ovarian
NCI/ADR-RES ovarian = tested on: NCI/ADR-RES ovarian
UACC-62 melanoma = tested on: UACC-62 melanoma
HCC-2998 colon = tested on: HCC-2998 colon
RPMI-8226 leukemia = tested on: RPMI-8226 leukemia
TK-10 renal = tested on: TK-10 renal
U251 CNS = tested on: U251 CNS
HCT-116 colon = tested on: HCT-116 colon
RXF 393 renal = tested on: RXF 393 renal
HOP-92 NSCLC = tested on: HOP-92 NSCLC
HL-60(TB) leukemia = tested on: HL-60(TB) leukemia
CCRF-CEM leukemia = tested on: CCRF-CEM leukemia
MCF7 breast = tested on: MCF7 breast
SK-MEL-2 melanoma = tested on: SK-MEL-2 melanoma
SW-620 colon = tested on: SW-620 colon
NCI-H226 lung = tested on: NCI-H226 lung
HT29 colon = tested on: HT29 colon
M14 melanoma = tested on: M14 melanoma
PC-3 prostate = tested on: PC-3 prostate
MALME-3M melanoma = tested on: MALME-3M melanoma
A549 NSCLC = tested on: A549 NSCLC
SF-295 CNS = tested on: SF-295 CNS
OVCAR-4 ovarian = tested on: OVCAR-4 ovarian
OVCAR-8 ovarian = tested on: OVCAR-8 ovarian
IGROV1 ovarian = tested on: IGROV1 ovarian
COLO 205 colon = tested on: COLO 205 colon
SK-OV-3 ovarian = tested on: SK-OV-3 ovarian
K-562 leukemia = tested on: K-562 leukemia
UO-31 renal = tested on: UO-31 renal
ACHN renal = tested on: ACHN renal
SNB-75 CNS = tested on: SNB-75 CNS
SNB-19 CNS = tested on: SNB-19 CNS
HS 578T breast = tested on: HS 578T breast
OVCAR-3 ovarian = tested on: OVCAR-3 ovarian
MDA-MB-231 breast = tested on: MDA-MB-231 breast
BT-549 breast = tested on: BT-549 breast
CAKI-1 renal = tested on: CAKI-1 renal
HOP-62 NSCLC = tested on: HOP-62 NSCLC
NCI-H460 lung = tested on: NCI-H460 lung
LOX IMVI melanoma = tested on: LOX IMVI melanoma
HCT-15 colon = tested on: HCT-15 colon
T-47D breast = tested on: T-47D breast
SK-MEL-28 melanoma = tested on: SK-MEL-28 melanoma
NCI-H522 lung = tested on: NCI-H522 lung
MOLT-4 leukemia = tested on: MOLT-4 leukemia
SN12C renal = tested on: SN12C renal
EKVX NSCLC = tested on: EKVX NSCLC

CCN(CC)c1ccc(/C=N/NC(=O)c2ccc(S(N)(=O)=O)cc2)c(O)c1
GI50 (SK-MEL-5 melanoma): 537 nM | TGI (SK-MEL-5 melanoma): > 20300 nM | GI50 (KM12 colon): 579 nM | TGI (KM12 colon): > 100000 nM | GI50 (UACC-257 melanoma): 404 nM | TGI (UACC-257 melanoma): 5330 nM | GI50 (SF-539 CNS): 390 nM | TGI (SF-539 CNS): 7870 nM | GI50 (SF-268 CNS): 220 nM | TGI (SF-268 CNS): 17200 nM | GI50 (NCI-H23 lung): 1110 nM | TGI (NCI-H23 lung): > 100000 nM | GI50 (DU-145 prostate): 540 nM | TGI (DU-145 prostate): > 79600 nM | GI50 (A498 renal): 982 nM | TGI (A498 renal): 32700 nM | GI50 (MDA-MB-435): 659 nM | TGI (MDA-MB-435): > 100000 nM | GI50 (786-0 renal): 370 nM | TGI (786-0 renal): 8870 nM | GI50 (SR leukemia): 63.1 nM | GI50 (OVCAR-5 ovarian): 1640 nM | TGI (OVCAR-5 ovarian): > 84500 nM | GI50 (NCI/ADR-RES ovarian): 1390 nM | TGI (NCI/ADR-RES ovarian): > 100000 nM | GI50 (UACC-62 melanoma): 346 nM | TGI (UACC-62 melanoma): 5140 nM | GI50 (HCC-2998 colon): 419 nM | TGI (HCC-2998 colon): > 80100 nM | GI50 (RPMI-8226 leukemia): 3640 nM | TGI (RPMI-8226 leukemia): > 100000 nM | GI50 (TK-10 renal): 373 nM | TGI (TK-10 renal): 40100 nM | GI50 (U251 CNS): 159 nM | TGI (U251 CNS): 16500 nM | GI50 (HCT-116 colon): 205 nM | TGI (HCT-116 colon): 56700 nM | GI50 (RXF 393 renal): 541 nM | TGI (RXF 393 renal): 8710 nM | GI50 (HOP-92 NSCLC): 216 nM | TGI (HOP-92 NSCLC): 13100 nM | GI50 (HL-60(TB) leukemia): 206 nM | GI50 (CCRF-CEM leukemia): 105 nM | TGI (CCRF-CEM leukemia): > 100000 nM | GI50 (MCF7 breast): 399 nM | TGI (MCF7 breast): > 100000 nM | GI50 (SK-MEL-2 melanoma): 2250 nM | TGI (SK-MEL-2 melanoma): 53100 nM | GI50 (SW-620 colon): 429 nM | TGI (SW-620 colon): > 100000 nM | GI50 (NCI-H226 lung): 821 nM | TGI (NCI-H226 lung): > 29600 nM | GI50 (HT29 colon): 485 nM | TGI (HT29 colon): > 54900 nM | GI50 (M14 melanoma): 351 nM | TGI (M14 melanoma): 7140 nM | GI50 (PC-3 prostate): 345 nM | TGI (PC-3 prostate): > 100000 nM | GI50 (MALME-3M melanoma): 482 nM | TGI (MALME-3M melanoma): 9430 nM | GI50 (A549 NSCLC): 1440 nM | TGI (A549 NSCLC): > 100000 nM | GI50 (SF-295 CNS): 528 nM | TGI (SF-295 CNS): 20500 nM | GI50 (OVCAR-4 ovarian): 304 nM | TGI (OVCAR-4 ovarian): > 85400 nM | GI50 (OVCAR-8 ovarian): 279 nM | TGI (OVCAR-8 ovarian): > 49600 nM | GI50 (IGROV1 ovarian): 437 nM | TGI (IGROV1 ovarian): > 100000 nM | GI50 (COLO 205 colon): 296 nM | TGI (COLO 205 colon): 27000 nM | GI50 (SK-OV-3 ovarian): 394 nM | TGI (SK-OV-3 ovarian): 18400 nM | GI50 (K-562 leukemia): 408 nM | TGI (K-562 leukemia): > 100000 nM | GI50 (UO-31 renal): 399 nM | TGI (UO-31 renal): > 100000 nM | GI50 (ACHN renal): 465 nM | TGI (ACHN renal): > 100000 nM | GI50 (SNB-75 CNS): 351 nM | GI50 (SNB-19 CNS): 669 nM | TGI (SNB-19 CNS): 29900 nM | GI50 (HS 578T breast): 2250 nM | TGI (HS 578T breast): > 68000 nM | GI50 (OVCAR-3 ovarian): 137 nM | TGI (OVCAR-3 ovarian): > 100000 nM | GI50 (MDA-MB-231 breast): 389 nM | TGI (MDA-MB-231 breast): 28600 nM | GI50 (BT-549 breast): 480 nM | TGI (BT-549 breast): 7730 nM | GI50 (CAKI-1 renal): 393 nM | TGI (CAKI-1 renal): 30900 nM | GI50 (HOP-62 NSCLC): 226 nM | TGI (HOP-62 NSCLC): 7180 nM | GI50 (NCI-H460 lung): 467 nM | TGI (NCI-H460 lung): 6730 nM | GI50 (LOX IMVI melanoma): 187 nM | TGI (LOX IMVI melanoma): 3610 nM | GI50 (HCT-15 colon): 318 nM | TGI (HCT-15 colon): > 100000 nM | GI50 (T-47D breast): 2030 nM | TGI (T-47D breast): > 100000 nM | GI50 (SK-MEL-28 melanoma): 352 nM | TGI (SK-MEL-28 melanoma): > 64500 nM | GI50 (NCI-H522 lung): 310 nM | TGI (NCI-H522 lung): > 45300 nM | GI50 (MOLT-4 leukemia): 322 nM | TGI (MOLT-4 leukemia): > 100000 nM | GI50 (SN12C renal): 638 nM | TGI (SN12C renal): > 64800 nM | GI50 (EKVX NSCLC): 397 nM | TGI (EKVX NSCLC): > 100000 nM
